Data as given in patent publication US20220402900A1, “1,2,4-OXADIAZOL-5-ONE DERIVATIVES FOR THE TREATMENT OF CANCER” (Basilea Pharmaceutica International AG, priority 2019, published 2022).

Tests used:
[1] = molecular target: T1, human TEAD2 (amino acids 217-447) (Homo sapiens, UniProt Q15562); test: Thermal shift assay (TSA); format: binding; conditions: 3 μM recombinant TEAD2, compound 7 μM, shift vs DMSO control
T1 construct: human TEAD2 (amino acids 217-447); His-tag (N); purchased Proteros biostructures PR-0365; host or cells: E. coli
T1 sequence (Q15562 217-447): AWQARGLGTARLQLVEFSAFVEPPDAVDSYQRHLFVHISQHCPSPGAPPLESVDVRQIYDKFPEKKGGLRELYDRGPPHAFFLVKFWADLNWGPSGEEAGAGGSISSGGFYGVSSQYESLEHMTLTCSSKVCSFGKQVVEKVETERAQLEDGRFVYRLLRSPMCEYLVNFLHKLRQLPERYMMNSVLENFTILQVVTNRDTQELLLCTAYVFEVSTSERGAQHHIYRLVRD
Procedure: The thermal shift assay (TSA) was utilized to characterize target engagement in vitro based on ligand-dependent thermal stabilization of the protein. N-terminally His-tagged human TEAD2 (amino acids 217-447) expressed and purified from E. coli was purchased from Proteros biostructures (cat no. PR-0365). The melting reactions were performed in white, 96 well qPCR plates (Roche Diagnostics, cat. no. 04 729 692 001) in 20 mM HEPES pH 7, 100 mM NaCl in the presence of 4×SYPRO orange (Sigma, cat. no. S5692). Each well contained 3 μM recombinant TEAD2 and either DMSO (control) or experimental compounds at a final concentration of 7 μM. The total volume was 20 μL and the final DMSO concentration was 1%. The plate was sealed and analyzed in a LightCycler 480 II (Roche Diagnostics) by continuously reading the fluorescence using the 465-580 nm filter set while heating from 25° C. to 95° C. using a linear gradient of 1° C./min. Melting temperatures were determined by numerical differentiation using the LightCycler Thermal Shift Analysis software (Roche Diagnostics). The shifts in melting temperature caused by experimental compounds compared to the control are expressed as ΔTm (Table 2).

[2] = test system: TEAD reporter gene activity; test: TEAD reporter gene assay (MCF7 TEAD reporter cell line); format: cell-based; conditions: Homo sapiens; TEAD luciferase reporter in MCF7 cells, 24 hours; read-out: IC50 TEAD RGA (converted)
Description: A TEAD reporter cell line was purchased from BPS Bioscience (cat. no. 60618). It contains the firefly luciferase gene under control of TEAD responsive elements stably integrated into the human breast cancer MCF7 cells. In proliferating cells, a basal level of unphosphorylated YAP/TAZ resides in the nucleus and drives the TEAD-dependent expression of the luciferase reporter. The cells were cultivated as recommended by the supplier. Inhibition of TEAD reporter gene activity by experimental compounds was measured using white, clear-bottom, 96 well cell culture plates (Greiner Bio-One, cat. no. 655098). The cells were seeded at a density of 20,000 cells per well in 100 μL growth medium and the plates were incubated overnight at 37° C. with 5% CO2 prior to treatment. Experimental compounds were serially diluted in DMSO to 200× the desired final concentrations. 0.5 μL aliquots of DMSO or the test samples were then mixed into the wells and the cells were further incubated for 24 hours. Luminescence was then measured on a Synergy 4 reader (BioTek) using the ONE-Glo Luciferase Assay System (Promega, cat. no. E6120) according to the manufacturer's instructions. Relative inhibition values were calculated by normalizing the raw data using DMSO-treated cells (0% inhibition) and wells devoid of cells (100% inhibition). IC50 values were calculated by fitting concentration-response data to a sigmoidal 4-parameter logistic model.

NCI-H226 xenografts = test: NCI-H226 tumor xenograft efficacy study; format: in vivo; conditions: day 62, NCI-H226 xenografts in BALB/c nude mice
Procedure: Female BALB/c nude mice (GemPharmatech Co., Ltd) were subcutaneously inoculated with 10×10^6 NCI-H226 tumor cells (ATCC, CRL-5826) in 0.2 mL of PBS mixed with matrigel (1:1) (Corning). Randomization into six groups (n=8 animals per group) was performed when the mean tumor size reached approximately 150 (100-200) mm^3, after which drug treatments were started. Animals were dosed daily orally at the specified concentrations using an oral-gavage needle. The dosing volume was 10 mL/kg per mouse, with a volume adjusted to the mouse body weight. The vehicle control (water containing 0.5% hydroxypropyl methyl cellulose (Sigma-Aldrich, #H3785) and 0.5% Tween 80 (Sigma-Aldrich, #P1754) was administered in the same way. Tumor volumes were measured twice weekly in two dimensions using a caliper, and the volume was expressed in mm^3 using the formula “V=(L×W^2)/2”, where V is the tumor volume, L is the tumor length (the longest tumor dimension) and W is the tumor width (the longest tumor dimension perpendicular to L).
Animal protocols were reviewed and approved by the Institutional Animal Care and Use Committee (IACUC) at CrownBio. During the study, the care and use of animals was conducted in accordance with the regulations of the Association for Assessment and Accreditation of Laboratory Animal Care (AAALAC).

[3] = test system: TEAD-dependent PD marker CTGF; test: MSTO-211H tumor xenograft pharmacodynamic (PD) study; format: in vivo, mice
Procedure: Female CB. 17 SCID mice (Charles River) were subcutaneously inoculated with 5×10^6 MSTO-211H tumor cells (ATCC, CRL-2081) in 0.1 mL of PBS mixed with matrigel (1:1) (BD Biosciences). Randomization into two groups was performed when the mean tumor size reached approximately 300-400 mm^3, after which drug treatments were started.
Animals were dosed daily orally at the specified concentrations of the compound of Example 2 or the compound of Example 11 using an oral-gavage needle. The dosing volume was 10 mL/kg per mouse, with a volume adjusted to the mouse body weight. The vehicle control (water containing 0.5% hydroxypropyl methyl cellulose (Sigma-Aldrich, #H9262) and 0.5% Tween 80 (Sigma-Aldrich, #P1754)) was administered in the same way.
PD marker analysis was performed on tumors that were collected from animals 3 hours after the last dose was given. […] The tumor protein lysates were prepared and analyzed using standard Western blot procedures. […] For quantitative PCR (qPCR) analyses, RNA was converted into cDNA following manufacturer's instructions (SuperScript™ III First-Strand Synthesis for RT-PCR, Invitrogen, #18080-051). […] The increase in fluorescence was analyzed with the instrument-specific software (Roche, LightCycler® 480 II), and a mean quantity was calculated from duplicate or triplicate PCRs for each sample using the ΔΔCt method.

Row | Structure (SMILES) | ΔTm at 7 µM [1] [°C] | IC50 [2] [µM] | final ΔT/C (NCI-H226 xenografts; 50 mg/kg po qd) | final ΔT/C (NCI-H226 xenografts; 125 mg/kg po qd) | final ΔT/C (NCI-H226 xenografts; 250 mg/kg po qd) | decrease of CTGF mRNA to (normalized to actin mRNA) ([3]; 250 mg/kg po qd×8, MSTO-211H tumors isolated 3 hours after last dose) [%] | decrease of CTGF mRNA to (normalized to actin mRNA) ([3]; 250 mg/kg po qd×5, MSTO-211H tumors isolated 3 hours after last dose) [%]
1 | O=c1[nH]c(-c2nccnc2Nc2ccc(C(F)(F)F)cc2)no1 [Example 2, 3-[3-[4-(trifluoromethyl)anilino]pyrazin-2-yl]-4H-1,2,4-oxadiazol-5-one] | 10.6 | 0.041 | 0.27 | 0.13 | 0.017 | 28 | –
2 | COc1ccnc(Nc2ccc(C(F)(F)F)cc2)c1-c1noc(=O)[nH]1 [Example 11, 3-[4-methoxy-2-[4-(trifluoromethyl)anilino]-3-pyridyl]-4H-1,2,4-oxadiazol-5-one] | 6.7 | 0.039 | – | – | – | – | 32
3 | O=c1[nH]c(-c2c(OCCF)ccnc2Nc2ccc(C(F)(F)F)cc2)no1 [Example 65, 3-[4-(2-fluoroethoxy)-2-[4-(trifluoromethyl)anilino]-3-pyridyl]-4H-1,2,4-oxadiazol-5-one] | 6 | 0.081 | – | – | – | – | –
4 | COC(C)(C)CCOc1ccnc(Nc2ccc(C(F)(F)F)cc2)c1-c1noc(=O)[nH]1 [Example 66, 3-[4-(3-methoxy-3-methyl-butoxy)-2-[4-(trifluoromethyl)anilino]-3-pyridyl]-4H-1,2,4-oxadiazol-5-one] | 0.4 | 1.47 | – | – | – | – | –
5 | O=c1[nH]c(-c2c(OC3CCNCC3)ccnc2Nc2ccc(C(F)(F)F)cc2)no1 [Example 67, 3-[4-(4-piperidyloxy)-2-[4-(trifluoromethyl)anilino]-3-pyridyl]-4H-1,2,4-oxadiazol-5-one] | 7.1 | 10.7 | – | – | – | – | –
